# Tested on: T cell transfer colitis model
# Experiment: Amelioration of body weight loss in T cell transfer-induced colitis model
# Format: in vivo
# Conditions: colitis-induced SCID mice injected with CD4-positive CD45RB-high cells; orally once a day from Day 16 to 31; body weight Day 19-31
# Protocol: By using colitis-induced SCID mice in which CD4-positive, CD45RB-high cells isolated from BALB/c mice splenocytes were injected, the efficacy of the example compounds was evaluated by the body weight changes. The experiment was performed over 31 days. On Day 1, CD4-positive, CD45RB-high cells isolated from the spleen of BALB/c mice (5×10^5 cells/mouse) were intravenously administered to SCID mice. From Day 16 to 31, the example compound was orally administered to the SCID mice once a day, followed by measuring body weights of all animals on Day 19, 22, 24, 26, 29 and 31. The efficacy was evaluated by body weight changes on Day 19, 22, 24, 26, 29 or 31. The body weight change (%) was determined by the formula shown below, where [A] is the body weight on Day 16, and [B] is the body weight on each day of body weight measurement (Day 19, 22, 24, 26, 29 or 31). body weight change (%)=B/A×100 (2) Results The results are shown in FIG. 6. The abscissa in the figures indicates the number of days elapsed, where the day on which CD4-positive, CD45RB-high cells isolated from the spleen of BALB/c mice (5×10^5 cells/mouse) were intravenously administered to SCID mice is Day 0.
smiles,measurement,value
"C[C@H]1CN(Cc2c(Cl)cccc2C(F)(F)F)C[C@@]1(CC(=O)O)C(=O)NC1CCN(CC2=CCCCC2)CC1 [compound (1), 2-[(3S,4R)-1-{[2-chloro-6-(trifluoromethyl)phenyl]methyl}-3-{[1-(cyclohex-1-en-1-ylmethyl)piperidin-4-yl]carbamoyl}-4-methylpyrrolidin-3-yl]acetic acid]",effect on body weight change (FIG. 6),weight reduction-suppressing effect

# Reference: patent US9550732B2, “Salt of pyrrolidin-3-yl acetic acid derivative and crystals thereof” (Eisai R&D Management Co., Ltd., priority 2013, dated 2017)
